# Read-outs that look alike come from different tables or passages of the source.
# How the values were obtained:
# AtIspF = AtIspF (Arabidopsis thaliana, UniProt Q9CAK8); assay: University of Hamburg photometric enzymatic inhibition assay AtIspF; type: biochemical
# Description: (§1) Compounds were subjected to a photometric enzymatic assay to test for inhibition of the plant enzymes Arabidopsis thaliana IspD and IspF, and IspE from Lycopersicon esculentum.
# The IspF assay mixture conditions were as follows: 100 mM Tris hydrochloride at pH 8.0 with 10 mM MgCl2, 1 mM dithiothreitol, 2.5 mM potassium phosphoenol pyruvate, 2 mM ATP, 1 mM of 4-diphosphocytidyl-2C methylerythritol 2-phosphate, 460 μM NADH, 1.1% (v/v) DMSO, 0.5 U CMP kinase, 2.4 mU IspF, 1 U lactate dehydrogenase, 1 U pyruvate kinase in 180 μL of solution. Solutions were incubated at 27° C. and monitored photometrically.
# Pseudomonas aeruginosa [1] = assay: Antibacterial preliminary screening PA; type: cell-based; conditions: score 0-3; also: key: 0 represents no inhibition; 3 is comparable to commercial antibiotic control
# LeIspE = LeIspE (Solanum lycopersicum, UniProt P93841); assay: University of Hamburg photometric enzymatic inhibition assay LeIspE; type: biochemical, Lycopersicon esculentum
# Chain of LeIspE (P93841 89-401): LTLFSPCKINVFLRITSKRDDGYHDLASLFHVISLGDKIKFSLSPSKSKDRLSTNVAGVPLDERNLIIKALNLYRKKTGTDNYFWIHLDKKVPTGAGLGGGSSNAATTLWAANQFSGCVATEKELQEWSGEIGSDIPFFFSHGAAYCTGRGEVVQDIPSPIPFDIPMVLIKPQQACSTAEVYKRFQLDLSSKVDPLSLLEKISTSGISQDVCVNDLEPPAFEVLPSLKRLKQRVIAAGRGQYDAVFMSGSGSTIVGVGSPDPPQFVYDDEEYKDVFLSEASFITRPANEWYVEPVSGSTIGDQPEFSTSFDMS
# Description: as §1
# The IspE assay conditions were very similar to the IspD assay in which the assay mixture was composed of 100 mM Tris hydrochloride at pH 8.0 with 10 mM MgCl2, 1 mM dithiothreitol, 2.5 mM potassium phosphoenol pyruvate, 2 mM ATP, 1 mM of 4-Diphosphocytidyl-2-C-methylerythritol, 460 μM NADH, 1.1% (v/v) DMSO, 2.4 mU IspE, 1 U lactate dehydrogenase, 1 U pyruvate kinase in 180 μL of solution. Solutions were incubated at 27° C. and monitored photometrically.
# Bacillus cereus [2] = assay: Antibacterial preliminary screening BC; type: cell-based; conditions: score 0-3; also: key: 0 represents no inhibition; 3 is comparable to commercial antibiotic control
# [3] = tested on: Burkholderia thailandensis; type: cell-based; conditions: preliminary screening, score 0-3
# Micrococcus luteus [4] = assay: Antibacterial preliminary screening ML; type: cell-based; conditions: score 0-3; also: key: 0 represents no inhibition; 3 is comparable to commercial antibiotic control
# Klebsiella pneumonia [5] = assay: Antibacterial preliminary screening KP; type: cell-based; conditions: score 0-3; also: key: 0 represents no inhibition; 3 is comparable to commercial antibiotic control
# Corynebacterium xerosis [6] = assay: Antibacterial preliminary screening CX; type: cell-based; conditions: score 0-3; also: key: 0 represents no inhibition; 3 is comparable to commercial antibiotic control
# Escherichia coli [7] = assay: Antibacterial preliminary screening EC; type: cell-based; conditions: score 0-3; also: key: 0 represents no inhibition; 3 is comparable to commercial antibiotic control
# AtIspD = AtIspD (Arabidopsis thaliana, UniProt P69834); assay: University of Hamburg photometric enzymatic inhibition assay AtIspD; type: biochemical
# Chain of AtIspD (P69834 62-302): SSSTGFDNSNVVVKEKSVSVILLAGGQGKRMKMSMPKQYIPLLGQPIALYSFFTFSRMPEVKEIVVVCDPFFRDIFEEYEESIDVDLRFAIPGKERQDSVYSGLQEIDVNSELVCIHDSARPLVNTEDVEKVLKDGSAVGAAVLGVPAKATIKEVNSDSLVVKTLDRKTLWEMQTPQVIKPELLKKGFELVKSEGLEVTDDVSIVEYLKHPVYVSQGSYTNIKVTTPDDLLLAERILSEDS
# Description: as §1
# The procedure for AtIspD enzymatic inhibition assay, was performed by making an assay mixture of 100 mM Tris hydrochloride at pH 8.0 with 10 mM MgCl2, 1 mM dithiothreitol, 2.5 mM potassium phosphoenol pyruvate, 2.1 mM CTP, 2 mM ATP, 1 mM of (2R,3S)-2,3-dihydroxy-4-oxopentyl phosphate, 460 μM NADH, 1.1% (v/v) DMSO, 0.4 U IspE, 1 U lactate dehydrogenase, 1 U pyruvate kinase and 2.4 mU IspD in 180 μL of solution. Solutions were incubated at 27° C. and monitored photometrically. By preparing the assay mixture with a large excess of IspE compared to IspD, any inhibition of IspE by the test inhibitor would be insignificant compared to IspD and therefore the rate of the reaction is determined by IspD activity.
# [8] = tested on: Corynebacterium pseudodiphtheriae; assay: Antibacterial preliminary screening CP; type: cell-based; conditions: score 0-3;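 also: 0 is no inhibition and 3 matches the commercial antibiotic control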
# Mycobacterium smegmatis [9] = assay: Antibacterial preliminary screening MS; type: cell-based; conditions: score 0-3; also: key: 0 represents no inhibition; 3 is comparable to commercial antibiotic control
# Mycobacterium smegmatis [10] = assay: Antibacterial assay zone of inhibition Ms; type: cell-based
# Klebsiella pneumonia [11] = assay: Antibacterial assay zone of inhibition Kp; type: cell-based
# Bacillus cereus [12] = assay: Antibacterial assay zone of inhibition Bc; type: cell-based
# Pseudomonas aeruginosa [13] = assay: Antibacterial assay zone of inhibition Pa; type: cell-based
# [14] = tested on: Corynebacterium pseudodiphtheriae; assay: Antibacterial assay zone of inhibition Cp; type: cell-based
# Escherichia coli [15] = assay: Antibacterial assay zone of inhibition Ec; type: cell-based
# [16] = tested on: Burkholderia thailandensis; type: cell-based
# Micrococcus luteus [17] = assay: Antibacterial assay zone of inhibition Ml; type: cell-based
# Corynebacterium xerosis [18] = assay: Antibacterial assay zone of inhibition Cx; type: cell-based
# Chain of AtIspF (Q9CAK8 53-231): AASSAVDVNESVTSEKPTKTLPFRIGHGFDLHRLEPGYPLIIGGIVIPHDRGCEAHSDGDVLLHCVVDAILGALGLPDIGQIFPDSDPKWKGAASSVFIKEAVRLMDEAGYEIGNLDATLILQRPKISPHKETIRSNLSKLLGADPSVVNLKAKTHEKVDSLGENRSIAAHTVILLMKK
Compound,melting point,IC50 (AtIspF),PA score (Pseudomonas aeruginosa [1]),IC50 (LeIspE),BC score (Bacillus cereus [2]),BT score [3],ML score (Micrococcus luteus [4]),KP score (Klebsiella pneumonia [5]),CX score (Corynebacterium xerosis [6]),EC score (Escherichia coli [7]),IC50 (AtIspD),CP score [8],MS score (Mycobacterium smegmatis [9]),Antibacterial Ms zone of inhibition (Mycobacterium smegmatis [10]; 0.1 mM),Antibacterial Ms zone of inhibition (Mycobacterium smegmatis [10]; 0.5 mM),Antibacterial Ms zone of inhibition (Mycobacterium smegmatis [10]; 1 mM),Antibacterial Kp zone of inhibition (Klebsiella pneumonia [11]; 0.1 mM),Antibacterial Kp zone of inhibition (Klebsiella pneumonia [11]; 0.5 mM),Antibacterial Kp zone of inhibition (Klebsiella pneumonia [11]; 1 mM),Antibacterial Bc zone of inhibition (Bacillus cereus [12]; 0.1 mM),further results
"c1ccc(-c2nnc(-c3cc4ccccc4[nH]3)o2)cc1 [HGN-208, 2-(1H-indol-2-yl)-5-phenyl-1,3,4-oxadiazole]",254 to 257 °C,> 1000 µM,0,165 ± 47 µM,0,0,0,0,0,0,342 ± 42 µM,0,0,–,–,–,–,–,–,–,–
"COCc1nnc(-c2cc3ccccc3[nH]2)o1 [HGN-212, 2-(1H-indol-2-yl)-5-(methoxymethyl)-1,3,4-oxadiazole]",152 to 156 °C,> 1000 µM,0,> 1000 µM,0,0,0,0,0,0,> 1000 µM,0,0,–,–,–,–,–,–,–,–
"c1ccc2[nH]c(-c3nnc(C4CCC4)o3)cc2c1 [HGN-251, 2-cyclobutyl-5-(1H-indol-2-yl)-1,3,4-oxadiazole]",169 to 173 °C,> 1000 µM,0,> 1000 µM,0,0,0,0,0,0,> 1000 µM,0,0,–,–,–,–,–,–,–,–
c1ccc(OCc2nnc(-c3nc4ccccc4s3)o2)cc1 [HGN-840],–,–,–,–,–,–,–,–,–,–,–,–,–,0 millimeters,0 millimeters,0 millimeters,0 millimeters,0 millimeters,16.5 millimeters,0 millimeters,Antibacterial Bc zone of inhibition (Bacillus cereus [12]; 0.5 mM): 0 millimeters; Antibacterial Bc zone of inhibition (Bacillus cereus [12]; 1 mM): 14.5 millimeters; Antibacterial Pa zone of inhibition (Pseudomonas aeruginosa [13]; 0.1 mM): 0 millimeters; Antibacterial Pa zone of inhibition (Pseudomonas aeruginosa [13]; 0.5 mM): 0 millimeters; Antibacterial Pa zone of inhibition (Pseudomonas aeruginosa [13]; 1 mM): 0 millimeters; Antibacterial Cp zone of inhibition ([14]; 0.1 mM): 0 millimeters; Antibacterial Cp zone of inhibition ([14]; 0.5 mM): 12 millimeters; Antibacterial Cp zone of inhibition ([14]; 1 mM): 19 millimeters; Antibacterial Ec zone of inhibition (Escherichia coli [15]; 0.1 mM): 0 millimeters; Antibacterial Ec zone of inhibition (Escherichia coli [15]; 0.5 mM): 0 millimeters; Antibacterial Ec zone of inhibition (Escherichia coli [15]; 1 mM): 0 millimeters; Antibacterial Bt zone of inhibition [16]: 0 14 17.5 millimeters; Antibacterial Ml zone of inhibition (Micrococcus luteus [17]; 0.1 mM): 0 millimeters; Antibacterial Ml zone of inhibition (Micrococcus luteus [17]; 0.5 mM): 0 millimeters; Antibacterial Ml zone of inhibition (Micrococcus luteus [17]; 1 mM): 0 millimeters; Antibacterial Cx zone of inhibition (Corynebacterium xerosis [18]; 0.1 mM): 0 millimeters; Antibacterial Cx zone of inhibition (Corynebacterium xerosis [18]; 0.5 mM): 0 millimeters; Antibacterial Cx zone of inhibition (Corynebacterium xerosis [18]; 1 mM): 0 millimeters
Cc1ccc(OCc2nnc(-c3nc4ccccc4s3)o2)cc1 [HGN-825],–,–,–,–,–,–,–,–,–,–,–,–,–,0 millimeters,13 millimeters,18 millimeters,0 millimeters,0 millimeters,0 millimeters,0 millimeters,Antibacterial Bc zone of inhibition (Bacillus cereus [12]; 0.5 mM): 0 millimeters; Antibacterial Bc zone of inhibition (Bacillus cereus [12]; 1 mM): 11.5 millimeters; Antibacterial Pa zone of inhibition (Pseudomonas aeruginosa [13]; 0.1 mM): 0 millimeters; Antibacterial Pa zone of inhibition (Pseudomonas aeruginosa [13]; 0.5 mM): 0 millimeters; Antibacterial Pa zone of inhibition (Pseudomonas aeruginosa [13]; 1 mM): 0 millimeters; Antibacterial Cp zone of inhibition ([14]; 0.1 mM): 0 millimeters; Antibacterial Cp zone of inhibition ([14]; 0.5 mM): 0 millimeters; Antibacterial Cp zone of inhibition ([14]; 1 mM): 0 millimeters; Antibacterial Ec zone of inhibition (Escherichia coli [15]; 0.1 mM): 0 millimeters; Antibacterial Ec zone of inhibition (Escherichia coli [15]; 0.5 mM): 0 millimeters; Antibacterial Ec zone of inhibition (Escherichia coli [15]; 1 mM): 0 millimeters; Antibacterial Bt zone of inhibition [16]: 0 millimeters; Antibacterial Ml zone of inhibition (Micrococcus luteus [17]; 0.1 mM): 0 millimeters; Antibacterial Ml zone of inhibition (Micrococcus luteus [17]; 0.5 mM): 0 millimeters; Antibacterial Ml zone of inhibition (Micrococcus luteus [17]; 1 mM): 11 millimeters; Antibacterial Cx zone of inhibition (Corynebacterium xerosis [18]; 0.1 mM): 0 millimeters; Antibacterial Cx zone of inhibition (Corynebacterium xerosis [18]; 0.5 mM): 0 millimeters; Antibacterial Cx zone of inhibition (Corynebacterium xerosis [18]; 1 mM): 0 millimeters
COc1ccc(OCc2nnc(-c3nc4ccccc4s3)o2)cc1 [HGN-833],–,–,–,–,–,–,–,–,–,–,–,–,–,0 millimeters,0 millimeters,0 millimeters,0 millimeters,0 millimeters,0 millimeters,0 millimeters,Antibacterial Bc zone of inhibition (Bacillus cereus [12]; 0.5 mM): 10 millimeters; Antibacterial Bc zone of inhibition (Bacillus cereus [12]; 1 mM): 15 millimeters; Antibacterial Pa zone of inhibition (Pseudomonas aeruginosa [13]; 0.1 mM): 0 millimeters; Antibacterial Pa zone of inhibition (Pseudomonas aeruginosa [13]; 0.5 mM): 0 millimeters; Antibacterial Pa zone of inhibition (Pseudomonas aeruginosa [13]; 1 mM): 0 millimeters; Antibacterial Cp zone of inhibition ([14]; 0.1 mM): 0 millimeters; Antibacterial Cp zone of inhibition ([14]; 0.5 mM): 0 millimeters; Antibacterial Cp zone of inhibition ([14]; 1 mM): 14 millimeters; Antibacterial Ec zone of inhibition (Escherichia coli [15]; 0.1 mM): 0 millimeters; Antibacterial Ec zone of inhibition (Escherichia coli [15]; 0.5 mM): 0 millimeters; Antibacterial Ec zone of inhibition (Escherichia coli [15]; 1 mM): 0 millimeters; Antibacterial Bt zone of inhibition ([16]; 0.1 mM): 0 12 17 millimeters; Antibacterial Bt zone of inhibition ([16]; 0.5 mM): 0 12 17 millimeters; Antibacterial Bt zone of inhibition ([16]; 1 mM): 0 12 17 millimeters; Antibacterial Ml zone of inhibition (Micrococcus luteus [17]; 0.1 mM): 0 millimeters; Antibacterial Ml zone of inhibition (Micrococcus luteus [17]; 0.5 mM): 0 millimeters; Antibacterial Ml zone of inhibition (Micrococcus luteus [17]; 1 mM): 13 millimeters; Antibacterial Cx zone of inhibition (Corynebacterium xerosis [18]; 0.1 mM): 0 millimeters; Antibacterial Cx zone of inhibition (Corynebacterium xerosis [18]; 0.5 mM): 0 millimeters; Antibacterial Cx zone of inhibition (Corynebacterium xerosis [18]; 1 mM): 15 millimeters
